Tested on: human foreskin primary keratinocytes
Assay: Keratinocyte scratch assay with 4-AP, NGF and NGF-antibody
Type: cell-based
Details: at 12 hours
Experimental: Keratinocytes (7×10^4 cells/well) with KC medium were seeded on collagen-I pre-coated 96-well ImageLock microplate for 6 hours. For the drug treatment cells were pretreated with 4-AP prior to coating for 16-18 hours. Next, the wound scratch was created using IncuCyte automated system. After scratches the cells washed with PBS and the respective cells medium was added with individual 1 mM of 4-AP and 200 ng/ml of NGF (MyBioSource, Inc., Catlog No. MBS7114974) in keratinocytes medium and combination of 1 mM of 4-AP & 200 ng/mL NGF with or without 10 μg/ml of NGF-antibody (ThermoFisher Scientific, Catlog No. MA5-32067). The plate was incubated in Incucyte automated imaging system, wound healing and cells migration imaged for every hour until 24 hour and analyzed for percent of closure as described above procedure.

Which scratch closure (56% in control cultures, 1 mM 4-AP, 200 ng/ml NGF) does the source give for “NGF: nerve growth factor (NGF), MyBioSource, used at 200 ng/ml in keratinocyte scratch assay” here?
Its scratch closure is 75%.

What about the “scratch closure with NGF-neutralizing antibody” value (plus 10 μg/ml NGF-antibody) of the same substance?
The value was 67%.
